Experimental data from the supplement of paper PMC10307832.

Legend:
Test in all cases: relative viability (nuclei count vs DMSO), 5 days (fraction); higher = more cells survive
[1] = system: NCI-H520
In short: (§1)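 Values are medians from duplicate plates. Each reflects relative viability, defined as the nuclei count of treated wells over that of vehicle wells. Lung cancer cell lines in 1536-well plates were pin-tool dosed one day after seeding with one drug alone or with a fixed anchor-drug dose plus five library-drug doses (not always all listed) in √10 steps, then fixed, stained and imaged at 4× after 5 days.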

[2] = system: NCI-H1650
In short: as §1

[3] = system: NCI-H1793
In short: as §1

[4] = system: NCI-H2347
In short: as §1

[5] = system: NCI-H1993
In short: as §1

[6] = system: NCI-H2228
In short: as §1

[7] = system: LC-2-ad
In short: as §1

[8] = system: BEN
In short: as §1

[9] = system: LU99A
In short: as §1

[10] = system: NCI-H1355
In short: as §1

[11] = system: NCI-H650
In short: as §1

[12] = system: A-427
In short: as §1

[13] = system: EKVX
In short: as §1

[14] = system: NCI-H23
In short: as §1

[15] = system: NCI-H1666
In short: as §1

[16] = system: NCI-H838
In short: as §1

[17] = system: SW 1573
In short: as §1

[18] = system: LOU-NH91
In short: as §1

[19] = system: LCLC-97TM1
In short: as §1

[20] = system: PC-3 [JPC-3]
In short: as §1

[21] = system: NCI-H460
In short: as §1

[22] = system: RERF-LC-KJ
In short: as §1

[23] = system: NCI-H1915
In short: as §1

`O=C(O)CCCCC(CCSCc1ccccc1)SCc1ccccc1` (centres undefined) [CPI-613] + O=C(CCCCCCC(=O)Nc1ccccc1)NO [Vorinostat] (partner 1 µM) was tested, and the relative viability ([1]; first compound 5 µM) was 0.831, the relative viability ([1]; first compound 15.81 µM) was 0.693 and the relative viability ([1]; first compound 50 µM) was 0.657. For the same compound, the relative viability ([1]; first compound 158.11 µM) was 0.325, the relative viability ([1]; first compound 500 µM) was 0.11 and the relative viability ([2]; first compound 5 µM) was 0.521. It also gave a relative viability ([2]; first compound 15.81 µM) of 0.469, a relative viability ([2]; first compound 50 µM) of 0.507 and a relative viability ([2]; first compound 158.11 µM) of 0.142. For the same compound, the relative viability ([2]; first compound 500 µM) was 0.0205, the relative viability ([3]; first compound 5 µM) was 0.781 and the relative viability ([3]; first compound 15.81 µM) was 0.559. For the same compound, the relative viability ([3]; first compound 50 µM) was 0.754, the relative viability ([3]; first compound 158.11 µM) was 0.424 and the relative viability ([3]; first compound 500 µM) was 0.0086. For the same compound, the relative viability ([4]; first compound 5 µM) was 0.513, the relative viability ([4]; first compound 15.81 µM) was 0.494 and the relative viability ([4]; first compound 50 µM) was 0.596. The relative viability ([4]; first compound 158.11 µM) was 0.387, the relative viability ([4]; first compound 500 µM) was 0.235 and the relative viability ([5]; first compound 5 µM) was 0.569. For the same compound, the relative viability ([5]; first compound 15.81 µM) was 0.495, the relative viability ([5]; first compound 50 µM) was 0.61 and the relative viability ([5]; first compound 158.11 µM) was 0.404. For the same compound, the relative viability ([5]; first compound 500 µM) was 0.227, the relative viability ([6]; first compound 5 µM) was 0.776 and the relative viability ([6]; first compound 15.81 µM) was 0.402. The relative viability ([6]; first compound 50 µM) was 0.559, the relative viability ([6]; first compound 158.11 µM) was 0.229 and the relative viability ([6]; first compound 500 µM) was 0.0377. For the same compound, the relative viability ([7]; first compound 5 µM) was 0.624, the relative viability ([7]; first compound 15.81 µM) was 0.631 and the relative viability ([7]; first compound 50 µM) was 0.594. For the same compound, the relative viability ([7]; first compound 158.11 µM) was 0.0484, the relative viability ([7]; first compound 500 µM) was 0.0025 and the relative viability ([8]; first compound 5 µM) was 0.491. The relative viability ([8]; first compound 15.81 µM) was 0.529, the relative viability ([8]; first compound 50 µM) was 0.558 and the relative viability ([8]; first compound 158.11 µM) was 0.593. For the same compound, the relative viability ([8]; first compound 500 µM) was 0.607, the relative viability ([9]; first compound 5 µM) was 0.474 and the relative viability ([9]; first compound 15.81 µM) was 0.408. For the same compound, the relative viability ([9]; first compound 50 µM) was 0.466, the relative viability ([9]; first compound 158.11 µM) was 0.394 and the relative viability ([9]; first compound 500 µM) was 0.223. For the same compound, the relative viability ([10]; first compound 5 µM) was 0.568, the relative viability ([10]; first compound 15.81 µM) was 0.547 and the relative viability ([10]; first compound 50 µM) was 0.537. It also gave a relative viability ([10]; first compound 158.11 µM) of 0.452, a relative viability ([10]; first compound 500 µM) of 0.0985 and a relative viability ([11]; first compound 5 µM) of 0.447. It also gave a relative viability ([11]; first compound 15.81 µM) of 0.365, a relative viability ([11]; first compound 50 µM) of 0.301 and a relative viability ([11]; first compound 158.11 µM) of 0.297. The relative viability ([11]; first compound 500 µM) was 0.414, the relative viability ([12]; first compound 5 µM) was 0.884 and the relative viability ([12]; first compound 15.81 µM) was 0.822. For the same compound, the relative viability ([12]; first compound 50 µM) was 0.827, the relative viability ([12]; first compound 158.11 µM) was 0.726 and the relative viability ([12]; first compound 500 µM) was 0.492. It also gave a relative viability ([13]; first compound 5 µM) of 0.695, a relative viability ([13]; first compound 15.81 µM) of 0.668 and a relative viability ([13]; first compound 50 µM) of 0.637. For the same compound, the relative viability ([13]; first compound 158.11 µM) was 0.258, the relative viability ([13]; first compound 500 µM) was 0.429 and the relative viability ([14]; first compound 5 µM) was 0.612. For the same compound, the relative viability ([14]; first compound 15.81 µM) was 0.586, the relative viability ([14]; first compound 50 µM) was 0.591 and the relative viability ([14]; first compound 158.11 µM) was 0.168. The relative viability ([14]; first compound 500 µM) was 0.0015, the relative viability ([15]; first compound 5 µM) was 1.07 and the relative viability ([15]; first compound 15.81 µM) was 1.01. For the same compound, the relative viability ([15]; first compound 50 µM) was 1.01, the relative viability ([15]; first compound 158.11 µM) was 0.542 and the relative viability ([15]; first compound 500 µM) was 0.417. For the same compound, the relative viability ([16]; first compound 5 µM) was 0.675, the relative viability ([16]; first compound 15.81 µM) was 0.625 and the relative viability ([16]; first compound 50 µM) was 0.797. For the same compound, the relative viability ([16]; first compound 158.11 µM) was 0.3, the relative viability ([16]; first compound 500 µM) was 0.107 and the relative viability ([17]; first compound 5 µM) was 0.749. For the same compound, the relative viability ([17]; first compound 15.81 µM) was 0.635, the relative viability ([17]; first compound 50 µM) was 0.456 and the relative viability ([17]; first compound 158.11 µM) was 0.165. For the same compound, the relative viability ([17]; first compound 500 µM) was 0.0536, the relative viability ([18]; first compound 5 µM) was 0.891 and the relative viability ([18]; first compound 15.81 µM) was 0.844. It also gave a relative viability ([18]; first compound 50 µM) of 0.871, a relative viability ([18]; first compound 158.11 µM) of 0.837 and a relative viability ([18]; first compound 500 µM) of 0.622. It also gave a relative viability ([19]; first compound 5 µM) of 0.479, a relative viability ([19]; first compound 15.81 µM) of 0.492 and a relative viability ([19]; first compound 50 µM) of 0.769. For the same compound, the relative viability ([19]; first compound 158.11 µM) was 0.331, the relative viability ([19]; first compound 500 µM) was 0.0868 and the relative viability ([20]; first compound 5 µM) was 0.83. It also gave a relative viability ([20]; first compound 50 µM) of 0.738, a relative viability ([20]; first compound 158.11 µM) of 0.623 and a relative viability ([20]; first compound 500 µM) of 0.389. The relative viability ([21]; first compound 5 µM) was 0.698, the relative viability ([21]; first compound 15.81 µM) was 0.553 and the relative viability ([21]; first compound 50 µM) was 0.718. The relative viability ([21]; first compound 158.11 µM) was 0.0356, the relative viability ([21]; first compound 500 µM) was 0.008 and the relative viability ([22]; first compound 5 µM) was 0.607. It also gave a relative viability ([22]; first compound 15.81 µM) of 0.53, a relative viability ([22]; first compound 50 µM) of 0.631 and a relative viability ([22]; first compound 158.11 µM) of 0.415. It also gave a relative viability ([22]; first compound 500 µM) of 0.344, a relative viability ([23]; first compound 5 µM) of 0.502 and a relative viability ([23]; first compound 15.81 µM) of 0.54. For the same compound, the relative viability ([23]; first compound 50 µM) was 0.488, the relative viability ([23]; first compound 158.11 µM) was 0.467 and the relative viability ([23]; first compound 500 µM) was 0.0403.
